Legend:
[1] = tested on: fatty liver induced by dl-ethionine; assay: Therapeutic effect on the dl-ethionine-induced fatty liver (Test Example 3); format: in vivo, Sprague Dawley rats
Procedure: In order to examine the therapeutic effect of the inventive oral microemulsion composition, a test to measure the activity of restoring fatty liver induced by dl-ethionine was conducted as follows.
Six groups of rats, each consisting of 6 rats were prepared by the procedure of Test Example 1. A 2% (w/v) dl-ethionine saline solution was subcutaneously injected to each rat of five experimental groups (Groups 1 to 5) at a dosage of 200 mg/kg, twice a week to induce fatty liver.
The rats of Group 1 (negative control) were not treated with any therapeutic drug after the ethionine injection. The rats of Group 2 (positive control) were orally administered with BDD suspended in 1% (w/v) CMC once a day, five times a week after the ethionine injection, in an amount corresponding to 25 mg/kg of BDD; the rats of Group 3, with the Carduus marianus extract suspended in 1% (w/v) CMC, in an amount corresponding to 175 mg/kg of the Carduus marianus extract (52.5 mg/kg as silybin); and the rats of Group 4, with a simple mixture of BDD and Carduus marianusextract suspended in 1% (w/v) CMC, in an amount corresponding to 25mg/kg of BDD and 175 mg/kg of the Carduus marianus extract. The rats of Group 5 were orally administered with the formulation of Example 3 once a day, five times a week, in an amount corresponding to 3 mg/kg of BDD and 175 mg/kg of the Carduus marianus extract; and the rats of Group 6 (normal group) received neither ethionine injection nor any therapeutic drug.
One week after the administration, each rat was sacrificed, and the liver was extracted therefrom. The extracted liver was washed with saline, soaked in a 4-fold volume of potassium phosphate buffer (pH 7.5), and homogenized with a teflone-glass homogenizer. The homogenized liver was subjected to centrifugation at 600×g for 10 minutes to obtain a supernatant, which was subjected to centrifugations at 10,000×g for 20minutes, and then at […], to obtain a supernatant.
Then, the total cholesterol and triglyceride levels of each liver sample were measured by employing the supernatant in accordance with a conventional method, and the results are shown in Tables 5 and 6, respectively.

liver damaged by CCl4 = assay: Therapeutic effect on the liver damaged by carbon tetrachloride (Test Example 1); format: in vivo, Sprague Dawley rats; settings: serum
Procedure: The therapeutic effect of the inventive oral microemulsion composition on the liver damaged by CCl4 was examined as follows.
Thirty-six 4 to 5-week old male Sprague Dawley rats were divided into six groups each consisting of 6 rats having an average body weight of 202±5g. The rats were acclimated to the cage environment set at 23±2° C. and 55±5% relative humidity. Then 50% (v/v) solution of carbon tetrachloride in corn oil was intraperitoneally administered to each rat of five experimental groups (Groups 1 to 5) at a dose of 0.75 ml/kg, twice a week (monday and friday) to induce hepatotoxicity.
The rats of Group 1 (negative control) were not treated with any therapeutic drug after the CCl4 injection. The rats of Group 2 (positive control) were orally administered with BDD suspended in 1% (w/v) CMC (carboxymethyl cellulose) once a day, six times a week after the CCl4 injection, in an amount corresponding to 25 mg/kg of BDD; the rats of Group 3, with a Carduus marianus extract suspended in 1% (w/v) CMC, in an amount corresponding to 175 mg/kg of the Carduus marianus extract (52.5 mg/kg as silybin); and the rats of Group 4, with a simple mixture of BDD and Carduus marianus extract suspended in 1% (w/v) CMC, in an amount corresponding to 25 mg/kg of BDD and 175 mg/kg of the Carduus marianus extract. The rats of Group 5 were orally administered with the formulation of Example 3 once a day, six times a week, in an amount corresponding to 3 mg/kg of BDD and 175 mg/kg of the Carduus marianusextract; and the rats of Group 6 (normal group) were not subjected to CCl4injection and no therapeutic drugs were administered thereto.
Four weeks after the administration, the rats were sacrificed and serum samples were taken according to a preset schedule. The serum ALT (alanine aminotransferase) and AST (aspartate aminotransferase) levels were measured in accordance with a conventional method, and the results are shown in Tables 1 and 2, respectively.

[2] = dl-ethionine-treated rats, oral once a day five times a week, one week, BDD 25 mg/kg, extract 175 mg/kg, Example 3: 3 mg/kg BDD + 175 mg/kg extract
[3] = versus ethionine control Group 1, one week
[4] = CCl4-treated rats, oral once a day six times a week, four weeks, BDD 25 mg/kg, extract 175 mg/kg, Example 3: 3 mg/kg BDD + 175 mg/kg extract
[5] = versus CCl4 control Group 1, four weeks

Question: `COC(=O)c1cc(OC)c2c(c1-c1c(C(=O)OC)cc(OC)c3c1OCO3)OCO2` [BDD, biphenyldimethyldicarboxylate] was tested. Which “Total Cholesterol (average concentration ± standard deviation)” value [1, 2] did it give?
Answer: Its value is 22.0 ± 1.9 mg/g.

Question: And the “Triglyceride (average concentration ± standard deviation)” value [1, 2]?
Answer: Its value is 10.1 ± 0.5 mg/g.

Question: What about the “Ratio of cholesterol level to a control” value [1, 3] of the same compound?
Answer: The value was 91.3%.

Question: And the “Ratio of triglylceride level to a control” value [1, 3]?
Answer: The value was 72.7%.

Question: And the “ALT (average concentration ± standard deviation)” value (liver damaged by CCl4; [4])?
Answer: Its value is 137.7 ± 19.5 SF U/ml.

Question: What about the “AST (average concentration ± standard deviation)” value (liver damaged by CCl4; [4]) of the same compound?
Answer: Its value is 163.3 ± 4.5 SF U/ml.

Question: What about the “Ratio of ALT level to a control” value (liver damaged by CCl4; [5]) of the same compound?
Answer: Its value is 91.7%.

Question: What about the “Ratio of AST level to a control” value (liver damaged by CCl4; [5]) of the same compound?
Answer: The value was 95.2%.

— patent publication US7485326B2, “Oral microemulsion composition comprising biphenyldimethyldicarboxylate and silybin” (Hanmi Pharm Co., Ltd., priority 2003, dated 2009)
